Tests used:
[1] = molecular target: Pim1 kinase (Homo sapiens (Human), UniProt P11309); details: read-out: Pim1 IC50
[2] = molecular target: Pim3 kinase (Homo sapiens (Human), UniProt Q86V86); details: read-out: Pim3 IC50

Pim1 kinase, sequence (P11309 whole entry): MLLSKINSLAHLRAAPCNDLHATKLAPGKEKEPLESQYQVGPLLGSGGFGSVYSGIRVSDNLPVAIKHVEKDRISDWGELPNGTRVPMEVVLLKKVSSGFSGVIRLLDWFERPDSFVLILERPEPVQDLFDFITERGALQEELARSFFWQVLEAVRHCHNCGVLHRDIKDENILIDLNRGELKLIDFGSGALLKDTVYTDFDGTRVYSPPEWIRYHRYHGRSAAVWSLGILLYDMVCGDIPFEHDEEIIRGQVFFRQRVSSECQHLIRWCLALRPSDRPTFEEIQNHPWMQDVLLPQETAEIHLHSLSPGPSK

Compound	IC50 [1] [nM]	IC50 [2] [nM]
N[C@H]1CCC[C@@H](c2ccncc2NC(=O)c2ccc(F)c(-c3cc(F)cc(F)c3F)n2)C1 [Example 14, N-(4-((1R,3S)-3-aminocyclohexyl)pyridin-3-yl)-5-fluoro-6-(2,3,5-trifluorophenyl)picolinamide]	6	12
CCc1ccc(F)c(-c2cccc(C(=O)Nc3cnccc3[C@H]3C[C@@H](N)[C@H](O)[C@@H](C)C3)n2)c1F [Example 15, N-(4-((1R,3R,4R,5S)-3-amino-4-hydroxy-5-methylcyclohexyl)pyridin-3-yl)-6-(3-ethyl-2,6-difluorophenyl)picolinamide]	3	6
CCc1ccc(F)c(-c2cccc(C(=O)Nc3cnccc3[C@H]3C[C@@H](N)[C@@H](O)[C@@H](C)C3)n2)c1F [Example 17, N-(4-((1R,3R,4S,5S)-3-amino-4-hydroxy-5-methylcyclohexyl)pyridin-3-yl)-6-(3-ethyl-2,6-difluorophenyl)picolinamide]	1	5
CCc1ccc(F)c(-c2cccc(C(=O)Nc3cnccc3[C@@H]3CCC[C@H](N)C3)n2)c1F [Example 19, N-(4-((1R,3S)-3-aminocyclohexyl)pyridin-3-yl)-6-(3-ethyl-2,6-difluorophenyl)picolinamide]	3	7
Cc1ccc(F)c(-c2nc(C(=O)Nc3cnccc3[C@@H]3CCC[C@H](N)C3)ccc2F)c1F [Example 20, N-(4-((1R,3S)-3-aminocyclohexyl)pyridin-3-yl)-6-(2,6-difluoro-3-methylphenyl)-5-fluoropicolinamide]	1	3
CCc1ccc(F)c(-c2cccc(C(=O)Nc3cnccc3[C@@H]3C[C@H](C)C[C@H](N)C3)n2)c1F [Example 21, N-(4-((1R,3S,5S)-3-amino-5-methylcyclohexyl)pyridin-3-yl)-6-(3-ethyl-2,6-difluorophenyl)picolinamide]	2	6
Cc1ccc(F)c(-c2nc(C(=O)Nc3cnccc3N3C[C@@H](N)[C@H](O)[C@@H](C)C3)ccc2F)c1F [Example 22, N-(4-((3R,4R,5S)-3-amino-4-hydroxy-5-methylpiperidin-1-yl)pyridin-3-yl)-6-(2,6-difluoro-3-methylphenyl)-5-fluoropicolinamide]	1	3
C[C@H]1CN(c2ccncc2NC(=O)c2cccc(-c3ccccc3F)n2)C[C@@H](N)[C@@H]1O [Example 23, N-(4-((3R,4R,5S)-3-amino-4-hydroxy-5-methylpiperidin-1-yl)pyridin-3-yl)-6-(2-fluorophenyl)picolinamide]	2	3
C[C@H]1CN(c2ccncc2NC(=O)c2nc(-c3c(F)cccc3F)ccc2F)C[C@@H](N)[C@@H]1O [Example 24, N-(4-((3R,4R,5S)-3-amino-4-hydroxy-5-methylpiperidin-1-yl)pyridin-3-yl)-6-(2,6-difluorophenyl)-3-fluoropicolinamide]	1	1
Cc1ccc(F)c(-c2nc(C(=O)Nc3cnccc3[C@@H]3C[C@H](C)C[C@H](N)C3)ccc2F)c1F [Example 27, N-(4-((1R,3S,5S)-3-amino-5-methylcyclohexyl)pyridin-3-yl)-6-(2,6-difluoro-3-methylphenyl)-5-fluoropicolinamide]	1	2
Cc1ccc(F)c(-c2cccc(C(=O)Nc3cnccc3[C@@H]3CCC[C@H](N)C3)n2)c1F [Example 28, N-(4-((1R,3S)-3-aminocyclohexyl)pyridin-3-yl)-6-(2,6-difluoro-3-methylphenyl)picolinamide]	1	2
Cc1ccc(F)c(-c2cccc(C(=O)Nc3cnccc3[C@H]3C[C@@H](N)[C@H](O)[C@@H](C)C3)n2)c1F [Example 30, N-(4-((1R,3R,4R,5S)-3-amino-4-hydroxy-5-methylcyclohexyl)pyridin-3-yl)-6-(2,6-difluoro-3-methylphenyl)picolinamide]	2	4
Cc1ccc(F)c(-c2cccc(C(=O)Nc3cnccc3[C@H]3C[C@@H](N)[C@@H](O)[C@@H](C)C3)n2)c1F [Example 31, N-(4-((1R,3R,4S,5S)-3-amino-4-hydroxy-5-methylcyclohexyl)pyridin-3-yl)-6-(2,6-difluoro-3-methylphenyl)picolinamide]	2	4
N[C@H]1CCC[C@@H](c2ccncc2NC(=O)c2ccc(F)c(-c3c(F)cc(O)cc3F)n2)C1 [Example 32, N-(4-((1R,3S)-3-aminocyclohexyl)pyridin-3-yl)-6-(2,6-difluoro-4-hydroxyphenyl)-5-fluoropicolinamide]	1	3
N[C@H]1CCC[C@@H](c2ccncc2NC(=O)c2ccc(F)c(-c3cc(O)ccc3F)n2)C1 [Example 33, N-(4-((1R,3S)-3-aminocyclohexyl)pyridin-3-yl)-5-fluoro-6-(2-fluoro-5-hydroxyphenyl)picolinamide]	1	3
N[C@H]1CCC[C@@H](c2ccncc2NC(=O)c2nc(-c3cc(O)ccc3F)ccc2F)C1 [Example 34, N-(4-((1R,3S)-3-aminocyclohexyl)pyridin-3-yl)-3-fluoro-6-(2-fluoro-5-hydroxyphenyl)picolinamide]	4	6
C[C@@H]1C[C@H](N)C[C@H](c2ccncc2NC(=O)c2cccc(-c3cc(O)ccc3F)n2)C1 [Example 35, N-(4-((1R,3S,5S)-3-amino-5-methylcyclohexyl)pyridin-3-yl)-6-(2-fluoro-5-hydroxyphenyl)picolinamide]	1	3
C[C@@H]1C[C@H](N)C[C@H](c2ccncc2NC(=O)c2cccc(-c3ccc(O)cc3F)n2)C1 [Example 37, N-(4-((1R,3S,5S)-3-amino-5-methylcyclohexyl)pyridin-3-yl)-6-(2-fluoro-4-hydroxyphenyl)picolinamide]	2	5
C[C@@H]1C[C@H](N)C[C@H](c2ccncc2NC(=O)c2ccc(F)c(-c3ccc(O)cc3F)n2)C1 [Example 38, N-(4-((1R,3S,5S)-3-amino-5-methylcyclohexyl)pyridin-3-yl)-5-fluoro-6-(2-fluoro-4-hydroxyphenyl)picolinamide]	1	3
C[C@@H]1C[C@H](N)C[C@H](c2ccncc2NC(=O)c2nc(-c3ccc(O)cc3F)ccc2F)C1 [Example 39, N-(4-((1R,3S,5S)-3-amino-5-methylcyclohexyl)pyridin-3-yl)-3-fluoro-6-(2-fluoro-4-hydroxyphenyl)picolinamide]	7	12
C[C@@H]1C[C@H](N)C[C@H](c2ccncc2NC(=O)c2nc(-c3cc(O)ccc3F)ccc2F)C1 [Example 43, N-(4-((1R,3S,5S)-3-amino-5-methylcyclohexyl)pyridin-3-yl)-3-fluoro-6-(2-fluoro-5-hydroxyphenyl)picolinamide]	1	2
COc1ccc(F)c(-c2nc(C(=O)Nc3cnccc3[C@H]3C[C@@H](N)[C@H](O)[C@@H](C)C3)ccc2F)c1F [Example 47, N-(4-((1R,3R,4R,5S)-3-amino-4-hydroxy-5-methylcyclohexyl)pyridin-3-yl)-6-(2,6-difluoro-3-methoxyphenyl)-5-fluoropicolinamide]	1	3

From patent publication US8592455B2 (priority 2008, dated 2013)
